Measurements published in patent US10363261B2, “Enolase inhibitors and methods of treatment therewith” (Board of Regents, The University of Texas System, priority 2015, dated 2019).

Experiments:
[1] = tested on: conversion of 13C-glucose to 13C-lactate in D423 ENO1-deleted glioma cells; assay: 13C-NMR tracing of uniformly labeled 13C-glucose to 13C-lactate; settings: 48 hours, 10 mM 13C-uniformly labeled glucose
Protocol: Glucose labeled with heavy, non-radioactive, ^13C at carbon C-1 and ^13C at all carbon atoms were purchased from Cambridge Isotopes (CLM-420-1 and CLM-1396, respectively). Glucose free DMEM media was supplemented with 10 mM ^13C-1 or ^13C-all labeled Glucose. NMR metabolic tracing was performed by substituting conventional DMEM medium with glucose free DMEM medium, to which ^13C-1 glucose (Cambridge Isotopes) was supplemented at 10 mM. […] After 4 days, conditioned media was extracted with 80% methanol at −80° C., lyophilized and resuspended in D2O. Proton-decoupled ^13C NMR spectra were acquired using a 500 MHZ Bruker instrument in the M. D. Anderson NMR core facility.

[2] = target: enolase (ENO1 and ENO2); assay: Enolase inhibitory activity in vitro, isoform not distinguished (ENO1 and ENO2); assay type: biochemical, human; settings: isolated enzymatic assay
Protocol: (§1) Human ENO1 and ENO2 were overexpressed in the human D423 cell line and used for enzymatic assays. Inhibitors (PhAH, SF2312 and Deoxy-SF2312, Hex, Hepta, Pom-Hex, and Fosmidomycin) were incubated with the enzyme prior to addition of 5 mM 2-PG substrate. Enzymatic activity was measured by monitoring fluorescence of NADH at 340 nm Exitation/460 nm emission using an Lactate dehydrogenase/Pyruvate kinase linked assay which links the formation of PEP to the oxidation of NADH to NAD+, as we have described in published work (Muller et al., 2012). Enzymatic activity was normalized to that in the absence of the inhibitor (set to 1) and plotted as function of inhibitor concentration.
(§2) Enolase activity was measured using two different methods, either by a fluorometric NADH-linked assay or a direct spectrophotometric assay via formation of PEP. In the fluorescent assay, enolase activity was measured via NADH oxidation in a pyruvate kinase-lactate dehydrogenase coupled assay as previously described (Muller, et al., 2012). The assay is conducted in 10 mM KCl, 5 mM MgSO4, 100 mM triethanolamine at pH 7.4, with 400 μM NADH and 2 mM ADP. 2-Phosphoglycerate (2-PGA), pyruvate kinase (PK) and lactate dehydrogenase (LDH) are provided in excess, with conversion of 2-PGA to PEP by enolase being rate limiting. PEP (with ADP) is substrate of PK; pyruvate formed by this reaction is linked to NADH oxidation by LDH. Enolase activity is determined by measuring oxidation of NADH fluorescently by excitation at 340 nm and emission at 460 nm. The substrate concentration, if not otherwise indicated, was 5 mM 2-PGA. Fluorescence was measured using Omega Fluorescence Plate Reader (BMG Labtech). Alternatively, Enolase activity was measured directly by the appearance of PEP from 2-PGA via absorption at 240 nm (Marangos, et al., 1978). The assay medium was the same, except that all the auxiliary reagents (PK/LDH, NADH, ADP) are omitted. Both assays were conducted in a 96-well plated format with the direct assay performed in UV-transmissible plates.

[3] = target: ENO2 (Homo sapiens, UniProt P09104); assay: Enolase enzymatic activity and Michaelis-Menten kinetic analysis, ENO2
Protocol: Human ENO1 and ENO2 were overexpressed in the human D423 cell line and used for enzymatic assays. […] Enzymatic activity was measured by monitoring fluorescence of NADH at 340 nm Exitation/460 nm emission using an Lactate dehydrogenase/Pyruvate kinase linked assay which links the formation of PEP to the oxidation of NADH to NAD+, as we have described in published work (Muller et al., 2012). Enzymatic activity was normalized to that in the absence of the inhibitor (set to 1) and plotted as function of inhibitor concentration.
The Michaelis-Menten Kinetic analysis was performed using standard methods in the field such as those taught by Voet and Voet, 2011. The enzymatic activity of Enolase 1 or 2 v was determine over a concentration range of 10 mM to 0.5 mM 2-PG [S], in the presence of increasing concentrations of inhibitor [I].
Native lysates of mouse tissues and human cell lines were prepared using 20 mM Tris HCl, 1 mM EDTA, and 1 mM β-mercaptoethanol at pH 7.4 and homogenized using a Polytron homogenizer three times for a period of 10 s followed by sonication, after which the lysates were cleared by centrifugation at 20,000 g for 10 minutes. Enolase activity was measured using two different methods, either by a fluorometric NADH-linked assay or a direct spectrophotometric assay via formation of PEP. In the fluorescent assay, enolase activity was measured via NADH oxidation in a pyruvate kinase-lactate dehydrogenase coupled assay as previously described (Muller, et al., 2012). The assay is conducted in 10 mM KCl, 5 mM MgSO4, 100 mM triethanolamine at pH 7.4, with 400 μM NADH and 2 mM ADP. 2-Phosphoglycerate (2-PGA), pyruvate kinase (PK) and lactate dehydrogenase (LDH) are provided in excess, with conversion of 2-PGA to PEP by enolase being rate limiting. PEP (with ADP) is substrate of PK; pyruvate formed by this reaction is linked to NADH oxidation by LDH. Enolase activity is determined by measuring oxidation of NADH fluorescently by excitation at 340 nm and emission at 460 nm. The substrate concentration, if not otherwise indicated, was 5 mM 2-PGA. Fluorescence was measured using Omega Fluorescence Plate Reader (BMG Labtech). Alternatively, Enolase activity was measured directly by the appearance of PEP from 2-PGA via absorption at 240 nm (Marangos, et al., 1978). The assay medium was the same, except that all the auxiliary reagents (PK/LDH, NADH, ADP) are omitted. Both assays were conducted in a 96-well plated format with the direct assay performed in UV-transmissible plates.

[4] = Hematocrit / hemolytic anemia after IV administration
Source text: Erythrocytes are sensitive to disruptions in the glycolytic cycle as glycolysis is the cell's only source of energy in the form of ATP.

[5] = tested on: D423 overexpressing ENO2; assay: Sensitivity of D423 cells with re-expression of ENO2; assay type: cell-based, human
Protocol: Total cell number was quantified by Hoechst 33342 (Cat# H3570; Invitrogen). Apoptotic cells were counted by staining with propidium iodide. Apoptotic cells become permeable to propidium iodide while live cells are not stained. On the day of apoptosis survey, old media was removed and each well was filled to 100 μl with fresh media. Hoechst and propidium iodide were mixed in 1:100 PBS and 10 μl of the mixture was added in each well gently without touching the cells for a final dilution of 1:1000 from stock. Plates were then incubated at 37° C. for 2 hours. Image capture and quantification was done by High Content Screening System—Operetta (Perkin Elmer).
Cell proliferation of glioma cell lines was assayed either through crystal violet staining or by live-cell confluence measurements with the IncuCyte (Essen BioScience). […] Dye extraction was performed using 10% acetic acid solution, and absorbance was read at 595 nm. Apoptotic cells were counted by staining with YO-PRO®-1 Iodide (491/509, Life Technologies, Y3603). […] Total cell number was quantified by Hoechst 33342 (Cat# H3570 Invitrogen). […] Image capture and quantification was done by High Content Screening System—Operetta (Perkin Elmer). ATP content was measured with the luciferase/luciferin CellTiter-Glo® assay. […]

[6] = target: human ENO1 (Homo sapiens, UniProt P06733); assay: Enolase enzymatic activity, NADH-linked pyruvate kinase/lactate dehydrogenase fluorescence assay, ENO1
Protocol: as §1, §2

[7] = tested on: Gli56 ENO1-deleted glioma cells; assay: Cell proliferation by Incucyte, ten days; assay type: cell-based, human
Protocol: Cell proliferation of glioma cell lines was assayed either through crystal violet staining or by live-cell confluence measurements with the IncuCyte (Essen BioScience). Growth curves using the IncuCyte were generated by confluence imaging every 4 hours with duplicate replicates with an initial seeding of 1500 cells/well in 96-well plates. At the indicated time point, cells were fixed with 10% formalin and stained with crystal violet. Dye extraction was performed using 10% acetic acid solution, and absorbance was read at 595 nm. Apoptotic cells were counted by staining with YO-PRO®-1 Iodide (491/509, Life Technologies, Y3603). Apoptotic cells become permeable to YO-PRO®-1 while live cells are not stained. Alternatively, Propidium Iodide was employed (Life Technologies) instead of YO-PRO. Total cell number was quantified by Hoechst 33342 (Cat# H3570 Invitrogen). Cells were seeded as 2×10^3 cells/well in 96-well plates and treated in the presence or absence of doxycycline. […] Image capture and quantification was done by High Content Screening System—Operetta (Perkin Elmer). ATP content was measured with the luciferase/luciferin CellTiter-Glo® assay. […] Lysis was achieved by the […] in the buffer and vigorous pipetting, and luminescence was determined using an Omega Luminescence Plate Reader (BMG Labtech). […]

[8] = tested on: ENO1-intact glioma cells; assay: Toxicity to ENO1-intact glioma cells during 13C-1 glucose tracing; assay type: cell-based, human; settings: 10 μM, four days
Protocol: ^13C-1 glucose tracing by NMR treatment was performed with a concentration of SF2312 (10 μM) that is non-toxic to ENO1-intact glioma cells for four days, led to profound inhibition of glucose consumption (isomeric peaks at 97 and 93 ppm) and lactate production (single peak at 20 ppm) in the media of D423 and Gli56 ENO1 deleted but not ENO1-intact glioma cells (FIG. 33). At the same time, a single peak at 64 ppm became visible in the D423 and Gli56 ENO1-deleted cells treated with SF2312. The most likely origin of this peak is the C-3 atom glycerate, which has a reported ^13C peak of 64 ppm (Spectral Database of Organic Compounds, SDBS No. 18695) and is the atom on which the ^13C label derived from the C-1 atom on glucose is expected. […] Glycerate likely forms in response to enolase inhibition as 2-PGA or 3-PGA accumulate and (the substrates of the enzyme) spontaneously hydrolyze, or alternatively, are dephosphorylated by the action of glycerate kinase (GLYCTK, FIG. 41). These experiments were repeated with D423 ENO1-deleted and isogenic ENO1-rescued control glioma cells with both PhAH and SF2312 (FIGS. 32C & 32D). […] This effect is especially noticeable when expressed as a ratio of ^13C-glycerate to ^13C-lactate, metabolites upstream and downstream of the enolase reaction, respectively (FIG. 32D). […]

Sequence of ENO2 (P09104 whole entry): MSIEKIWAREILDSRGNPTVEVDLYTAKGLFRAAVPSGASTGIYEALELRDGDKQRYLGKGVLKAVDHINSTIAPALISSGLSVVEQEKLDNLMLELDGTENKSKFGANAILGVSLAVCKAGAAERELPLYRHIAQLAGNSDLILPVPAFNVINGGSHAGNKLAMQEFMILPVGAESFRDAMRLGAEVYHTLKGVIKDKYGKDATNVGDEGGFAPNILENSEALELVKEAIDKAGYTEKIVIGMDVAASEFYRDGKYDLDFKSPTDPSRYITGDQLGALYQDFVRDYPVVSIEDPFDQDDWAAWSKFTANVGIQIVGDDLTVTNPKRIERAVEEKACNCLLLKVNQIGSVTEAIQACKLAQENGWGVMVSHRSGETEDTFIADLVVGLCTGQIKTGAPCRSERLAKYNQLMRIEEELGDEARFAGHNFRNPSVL
Sequence of human ENO1 (P06733 whole entry): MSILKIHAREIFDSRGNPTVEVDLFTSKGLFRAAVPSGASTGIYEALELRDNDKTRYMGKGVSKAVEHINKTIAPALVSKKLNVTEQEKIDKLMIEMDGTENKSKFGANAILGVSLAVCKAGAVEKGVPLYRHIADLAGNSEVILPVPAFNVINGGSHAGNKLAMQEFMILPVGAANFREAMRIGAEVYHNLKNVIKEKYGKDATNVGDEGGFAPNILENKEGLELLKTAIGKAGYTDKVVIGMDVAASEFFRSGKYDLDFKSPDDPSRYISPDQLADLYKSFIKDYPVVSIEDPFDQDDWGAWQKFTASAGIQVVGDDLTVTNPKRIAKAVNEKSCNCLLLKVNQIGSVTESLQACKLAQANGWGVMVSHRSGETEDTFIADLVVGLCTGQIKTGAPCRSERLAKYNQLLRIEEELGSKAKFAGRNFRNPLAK

With `O=C1C(P(=O)(O)O)CC(O)N1O` (racemic) [SF2312, 3-dihydroxyphosphoryl-1,5-dihydroxy-2-pyrrolidone] the “concentration sufficient to decrease the ratio of 13C Lactate/13C glucose by 70%” value [1] was 6.25 µM, the “IC50 lower than that of PhAH” value [2] was “about 50%” and the IC50 [3] was roughly 20 nM. For the same compound, the “potency against ENO2 versus ENO1 (IC50 lower / activity greater for ENO2)” value ([3]; ENO2 over ENO1) was 10 fold, the “inhibition kinetics with respect to substrate 2-PGA” value ([3]; SF2312: at IC50) was “non-competitive kinetics” and the “hematocrit after treatment (drop from 45%)” value ([4]; 100 mg/kg IV for longer than a week) was 29%. For the same compound, the “dose at which mild hemolytic anemia can be observed” value ([4]; as low as) was 50 mg/kg, the “residual sensitivity to SF2312 relative to that of PhAH after re-expression of ENO2” value [5] was “at least 4 times” and the IC50 [6] was roughly 20 nM. For the same compound, the “fold more potent at inhibiting proliferation of Gli56 ENO1-deleted cells compared to ENO1-intact glioma lines” value [7] was no more than 128 fold and the “toxicity to ENO1-intact glioma cells” value [8] was “non-toxic”.
